Reference: PubChem BioAssay AID248 (DTP/NCI, 2004)
Several values for one entry are separate records, joined by “and”; a condition that tells them apart may be missing. Equal entries are not always repeated. Inconclusive results and toxic doses are left out. Rule as the data show it: active = T/C of 150% or more; inactive = T/C below 125%.

Tested on: L1210 leukemia ip in BDF1 mice, survival T/C
Test: NCI In Vivo Anticancer Drug Screen. Data for tumor model L1210 Leukemia (intraperitoneal) in B6D2F1 (BDF1) mice
Conditions: endpoint: mean survival time, higher = longer survival
Summary of the method: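 Tumor was transplanted into mice, which were then dosed with test compound or vehicle alone. Survival was recorded for each group, and the treated figure was expressed relative to the control figure.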

[1] = dose: 100.0 mg/kg/injection, schedule: Q01DX009 (ip), vehicle: saline
[2] = dose: 100.0 mg/kg/injection, schedule: Q04DX003 (ip), vehicle: saline
[3] = dose: 200.0 mg/kg/injection, schedule: Q01DX009 (ip), vehicle: saline
[4] = dose: 200.0 mg/kg/injection, schedule: Q04DX003 (ip), vehicle: saline
[5] = dose: 400.0 mg/kg/injection, schedule: Q01DX009 (ip), vehicle: saline
[6] = dose: 400.0 mg/kg/injection, schedule: Q04DX003 (ip), vehicle: saline
[7] = dose: 100.0 mg/kg/injection, schedule: Q01DX009 (ip), vehicle: Klucel (hydroxypropylcellulose) (HPC)
[8] = dose: 200.0 mg/kg/injection, schedule: Q01DX009 (ip), vehicle: Klucel (hydroxypropylcellulose) (HPC)
[9] = dose: 400.0 mg/kg/injection, schedule: Q01DX009 (ip), vehicle: Klucel (hydroxypropylcellulose) (HPC)
[10] = dose: 100.0 mg/kg/injection, schedule: Q01DX009 (ip), vehicle: saline with Tween-80
[11] = dose: 200.0 mg/kg/injection, schedule: Q01DX009 (ip), vehicle: saline with Tween-80
[12] = dose: 400.0 mg/kg/injection, schedule: Q01DX009 (ip), vehicle: saline with Tween-80
[13] = dose: 100.0 mg/kg/injection, schedule: Q01DX001 (ip), vehicle: saline
[14] = dose: 100.0 mg/kg/injection, schedule: Q04DX002 (ip), vehicle: saline
[15] = dose: 200.0 mg/kg/injection, schedule: Q01DX001 (ip), vehicle: saline
[16] = dose: 200.0 mg/kg/injection, schedule: Q04DX002 (ip), vehicle: saline
[17] = dose: 400.0 mg/kg/injection, schedule: Q01DX001 (ip), vehicle: saline
[18] = dose: 400.0 mg/kg/injection, schedule: Q04DX002 (ip), vehicle: saline
[19] = dose: 100.0 mg/kg/injection, schedule: Q04DX002 (ip), vehicle: saline with Tween-80

Measured: T/C

C=CCOc1ccn(C)c(=O)n1
inactive: [1] 98 % of control | [2] 108 % of control | [3] 101 % of control | [4] 97 % of control | [5] 98 % of control | [6] 111 % of control

O=C(NCCCCCCNC(=O)Oc1ccccc1F)Oc1ccccc1F
inactive: [7] 102 % of control | [8] 97 % of control | [9] 91 % of control

NCC(=O)NC(CO)C(=O)O (configuration not stated)
inactive: [1] 106 % of control | [2] 110 % of control | [3] 101 % of control | [4] 103 % of control | [5] 95 % of control | [6] 100 % of control

CCc1nc(-c2ccccc2)c(-c2ccccc2)[nH]1
inactive: [10] 90 % of control | [11] 98 % of control | [12] 87 % of control

NC1NC(=O)C(CCCOc2ccc([N+](=O)[O-])cc2)C(c2ccccc2)N1 (configuration not stated)
inactive: [7] 91 % of control | [8] 110 % of control | [9] 89 % of control

CC1COCC(C)N1C(=O)c1cccnc1 (configuration not stated)
inactive: [13] 99 % of control | [1] 101 % of control and 103 % of control | [14] 96 % of control and 100 % of control | [2] 100 % of control | [15] 99 % of control | [3] 113 % of control and 114 % of control | [16] 107 % of control and 110 % of control | [4] 105 % of control | [17] 101 % of control | [5] 103 % of control | [18] 105 % of control and 110 % of control | [6] 105 % of control

O=C(OCc1ccccc1)C1CCCN1 (configuration not stated)
inactive: dose: 25.0 mg/kg/injection, schedule: Q01DX009 (ip), vehicle: water 104 % of control | dose: 25.0 mg/kg/injection, schedule: Q04DX003 (ip), vehicle: water 109 % of control | dose: 50.0 mg/kg/injection, schedule: Q01DX009 (ip), vehicle: water 97 % of control | dose: 50.0 mg/kg/injection, schedule: Q04DX003 (ip), vehicle: water 96 % of control | dose: 100.0 mg/kg/injection, schedule: Q01DX009 (ip), vehicle: water 97 % of control | [14] 100 % of control | dose: 100.0 mg/kg/injection, schedule: Q04DX003 (ip), vehicle: water 102 % of control | dose: 200.0 mg/kg/injection, schedule: Q01DX009 (ip), vehicle: water 102 % of control | [16] 96 % of control | dose: 200.0 mg/kg/injection, schedule: Q04DX003 (ip), vehicle: water 102 % of control | dose: 400.0 mg/kg/injection, schedule: Q01DX009 (ip), vehicle: water 103 % of control | dose: 400.0 mg/kg/injection, schedule: Q04DX003 (ip), vehicle: water 109 % of control

O=C1c2ccccc2C(=O)N1Nc1ccccc1
inactive: dose: 5.0 mg/kg/injection, schedule: Q01DX001 (ip), vehicle: carboxymethylcellulose (CMC) 96 % of control | dose: 10.0 mg/kg/injection, schedule: Q01DX001 (ip), vehicle: carboxymethylcellulose (CMC) 113 % of control | dose: 20.0 mg/kg/injection, schedule: Q01DX001 (ip), vehicle: carboxymethylcellulose (CMC) 105 % of control | dose: 40.0 mg/kg/injection, schedule: Q01DX001 (ip), vehicle: carboxymethylcellulose (CMC) 111 % of control | dose: 80.0 mg/kg/injection, schedule: Q01DX001 (ip), vehicle: carboxymethylcellulose (CMC) 94 % of control | dose: 100.0 mg/kg/injection, schedule: Q04DX002 (ip), vehicle: Klucel (hydroxypropylcellulose) (HPC) 110 % of control | dose: 200.0 mg/kg/injection, schedule: Q04DX002 (ip), vehicle: Klucel (hydroxypropylcellulose) (HPC) 97 % of control | dose: 400.0 mg/kg/injection, schedule: Q04DX002 (ip), vehicle: Klucel (hydroxypropylcellulose) (HPC) 103 % of control

CC(=O)OC1C(OC(C)=O)C2C(C)(C)CCCC2(C)C2Cc3occc3C(C)C12 (configuration not stated)
inactive: [2] 120 % of control | [4] 117 % of control | [6] 103 % of control

CSc1ccc(OC(=O)Nc2cccc(Cl)c2)cc1
inactive: [19] 100 % of control | dose: 200.0 mg/kg/injection, schedule: Q04DX002 (ip), vehicle: saline with Tween-80 93 % of control | dose: 400.0 mg/kg/injection, schedule: Q04DX002 (ip), vehicle: saline with Tween-80 104 % of control

CCOC(=O)CCC(NC(=O)OCc1ccccc1)C(=O)O (configuration not stated)
inactive: dose: 100.0 mg/kg/injection, schedule: Q04DX003 (ip), vehicle: Klucel (hydroxypropylcellulose) (HPC) 91 % of control | dose: 200.0 mg/kg/injection, schedule: Q04DX003 (ip), vehicle: Klucel (hydroxypropylcellulose) (HPC) 89 % of control

OCC(O)C(O)/C=N/Nc1cc(Cl)ccc1Cl (configuration not stated)
inactive: dose: 50.0 mg/kg/injection, schedule: Q01DX001 (ip), vehicle: carboxymethylcellulose (CMC) 90 % of control | dose: 100.0 mg/kg/injection, schedule: Q01DX001 (ip), vehicle: carboxymethylcellulose (CMC) 104 % of control | dose: 200.0 mg/kg/injection, schedule: Q01DX001 (ip), vehicle: carboxymethylcellulose (CMC) 95 % of control

O/N=C/c1cccc(/C=N/O)c1
inactive: dose: 50.0 mg/kg/injection, schedule: Q01DX009 (ip), vehicle: saline with Tween-80 94 % of control | dose: 50.0 mg/kg/injection, schedule: Q04DX003 (ip), vehicle: saline with Tween-80 95 % of control | [10] 98 % of control | dose: 100.0 mg/kg/injection, schedule: Q04DX003 (ip), vehicle: saline with Tween-80 97 % of control | [11] 102 % of control | dose: 200.0 mg/kg/injection, schedule: Q04DX003 (ip), vehicle: saline with Tween-80 100 % of control | [12] 95 % of control | dose: 400.0 mg/kg/injection, schedule: Q04DX003 (ip), vehicle: saline with Tween-80 93 % of control

COc1ccc(/C=C(\CC(=O)c2ccccc2)C(=O)Nc2ccccc2)cc1
inactive: [13] 93 % of control | [2] 109 % of control | [15] 96 % of control | [4] 98 % of control | [17] 103 % of control | [6] 95 % of control

NC(N)=N/N=C/NN/C=N/N=C(N)N
inactive: dose: 15.0 mg/kg/injection, schedule: Q01DX Z (ip), vehicle: saline 93 % of control | dose: 30.0 mg/kg/injection, schedule: Q01DX Z (ip), vehicle: saline 104 % of control | dose: 60.0 mg/kg/injection, schedule: Q01DX Z (ip), vehicle: saline 115 % of control | dose: 120.0 mg/kg/injection, schedule: Q01DX Z (oral), vehicle: saline 95 % of control

C[N+]1(C)N=C(c2ccccc2)C=C1[O-]
inactive: dose: 100.0 mg/kg/injection, schedule: Q04DX002 (ip), vehicle: other 111 % of control | dose: 200.0 mg/kg/injection, schedule: Q04DX002 (ip), vehicle: other 106 % of control | dose: 400.0 mg/kg/injection, schedule: Q04DX002 (ip), vehicle: other 100 % of control

C=CCNC(=O)c1ccccc1
inactive: dose: 25.0 mg/kg/injection, schedule: Q04DX002 (ip), vehicle: saline with Tween-80 97 % of control | dose: 50.0 mg/kg/injection, schedule: Q04DX002 (ip), vehicle: saline with Tween-80 93 % of control | [19] 111 % of control and 91 % of control

CCOC(=O)CC(=O)CCc1ccccc1
inactive: [13] 104 % of control | [1] 94 % of control and 100 % of control | [14] 103 % of control and 105 % of control | [2] 113 % of control | [15] 104 % of control | [3] 94 % of control and 102 % of control | [16] 100 % of control and 108 % of control | [4] 106 % of control | [17] 103 % of control | [5] 92 % of control and 97 % of control | [18] 96 % of control and 102 % of control | [6] 105 % of control

COc1ccc(/C=N/NC(=S)Nc2ccccc2)cc1
inactive: [7] 103 % of control | [8] 95 % of control | [9] 108 % of control

NCCC1CCCCN1 (configuration not stated)
inactive: dose: 100.0 mg/kg/injection, schedule: Q04DX003 (ip), vehicle: acetone 108 % of control | dose: 150.0 mg/kg/injection, schedule: Q01DX009 (ip), vehicle: saline 117 % of control | dose: 225.0 mg/kg/injection, schedule: Q01DX009 (ip), vehicle: saline 101 % of control | dose: 335.0 mg/kg/injection, schedule: Q01DX009 (ip), vehicle: saline 110 % of control
